In patent US9394284B2, “Compounds act at multiple prostaglandin receptors giving a general anti-inflammatory response” (Allergan, Inc., priority 2010, dated 2016):

How the values were obtained:
Format in all cases: cell-based
[1] = molecular target: T1, human prostanoid EP4 receptor (Homo sapiens, UniProt P35408); assay: FLIPR Ca2+ signaling antagonist assay, EP4 receptor stable cell line; details: HEK-293 EBNA stable cell line; standard agonist PGE2; NA = inactive (no antagonism or Kb 10,000 nM); PAg, Ag not defined
T1 construct: expressed in transfected cells
Outline: (§1)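 Peak Fluo-4 fluorescence (ex 470–495, em 515–575 nm) was read for 3.5 min on FLIPR after agonist injection and expressed relative to 10^−6 M standard agonist. Cells were HEK-293 EBNA transfectants. Test compound was added 4.5 min beforehand at 0.1–30 μM, or 0.067–1 μM for TP.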

[2] = molecular target: T2, human prostanoid EP1 receptor (Homo sapiens, UniProt P34995); assay: FLIPR Ca2+ signaling antagonist assay, EP1 receptor stable cell line; details: HEK-293 EBNA stable cell line; standard agonist PGE2; NA = inactive (no antagonism or Kb 10,000 nM); PAg, Ag not defined
T2 construct: expressed in transfected cells
T2 sequence (P34995 1-402): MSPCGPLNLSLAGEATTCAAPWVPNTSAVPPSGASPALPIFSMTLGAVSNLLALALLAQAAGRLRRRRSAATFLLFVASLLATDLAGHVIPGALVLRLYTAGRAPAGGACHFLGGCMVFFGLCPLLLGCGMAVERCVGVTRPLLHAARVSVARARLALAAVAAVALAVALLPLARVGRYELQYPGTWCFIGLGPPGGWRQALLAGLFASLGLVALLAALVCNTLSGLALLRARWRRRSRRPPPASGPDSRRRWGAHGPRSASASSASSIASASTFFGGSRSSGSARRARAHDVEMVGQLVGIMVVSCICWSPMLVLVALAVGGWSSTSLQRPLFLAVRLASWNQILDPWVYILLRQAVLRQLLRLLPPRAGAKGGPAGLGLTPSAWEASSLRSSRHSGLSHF
Outline: as §1

[3] = molecular target: T3, human prostanoid EP2 receptor (Homo sapiens, UniProt P43116); assay: FLIPR Ca2+ signaling antagonist assay, EP2 receptor stable cell line; details: HEK-293 EBNA stable cell line; standard agonist PGE2; NA = inactive (no antagonism or Kb 10,000 nM); PAg, Ag not defined
T3 construct: expressed in transfected cells
Description: The above compounds were tested for PG antagonist activity as follows using human recombinant prostanoid receptor (DP1, EP1-4, FP, IP and TP) stable cell lines:
In order to measure the response of Gs and Gi coupled prostanoid receptors as a Ca^2+ signal, chimeric G protein cDNAs were used. Stable cell lines over-expressing human prostanoid DP1, EP1-4, FP, IP, and TP receptors were established as follows:
Briefly, human prostanoid DP1, EP2, and EP4 receptor cDNAs were co-transfected with chimeric Gqs cDNA containing a haemagglutanin (HA) epitope; human prostanoid EP3 receptors were co-transfected with chimeric Gqi-HA; human EP1, FP, IP, and TP receptor cDNAs were expressed with no exogenous G-proteins. Gqs and Gqi chimeric cDNAs (Molecular Devices, Sunnyvale, Calif., U.S.A.), as well as cDNAs of prostanoid receptors, were cloned into a pCEP4 vector with a hygromycin B selection marker. Transfection into HEK-293 EBNA (Epstein-Barr virus nuclear antigen) cells was achieved by the FuGENE 6 transfection Reagent (Roche Applied Science, Indianapolis, Ind., USA). Stable transfectants were selected according to hygromycin resistance. Because Gqs and Gqi contained an HA epitope, G-protein expression was detected by Western blotting analysis using anti-mouse HA monoclonal antibody and horseradish peroxidase (HRP)-conjugated secondary antibody, while functional expression of prostanoid receptors was detected by FLIPR screening (Matias et al., 2004). These stable cell lines were validated using previously published antagonists at 10 μM against serial dilutions of standard agonists by FLIPR functional assays for Ca^2+ Signaling (as described below).
Ca^2+ signaling studies were performed using a FLIPR TETRA system (Molecular Devices, Sunnyvale, Calif., USA) in the 384-format. This is a high-throughput instrument for cell-based assays to monitor Ca^2+ signaling associated with GPCRs and ion channels. Cells were seeded at a density of 5×10^4 cells/well in BioCoat poly-D-lysine coated, black wall, clear bottom 384-well plates (BD Biosciences, Franklin lakes, NJ, USA) and allowed to attach overnight in an incubator at 37° C. The cells were then washed twice with HBSS-HEPES buffer (Hanks' balanced salt solution without bicarbonate and phenol red, 20 mM HEPES, pH 7.4) using an ELx405 Select CW Microplate Washer (BioTek, Winooski, Vt., USA). After 60 min of dye-loading in the dark using the Ca^2+-sensitive dye Fluo-4AM (Invitrogen, Carlsbad, Calif., USA), at a final concentration of 2×10^−6M, the plates were washed 4 times with HBSS-HEPES buffer to remove excess dye and leaving 50 μl of buffer in each well. The plates were then placed in the FLIPR TETRA instrument and allowed to equilibrate at 37° C. AGN-211377 was added in a 25 μl volume to each well to give final concentrations of 0.1 μM, 0.3 μM, 1 μM, 3 μM, 10 μM, and 30 μM; or 0.067 μM, 0.1 μM, 0.2 μM, 0.3 μM, 0.67 μM, and 1 μM for cells over-expressing TP receptors. After 4.5 minutes, a 7-point serial dilution of the standard agonist for the corresponding receptor, in a 25 μl volume was injected at the final concentrations from 10^−11M to 10^−5M in 10-fold serial dilution increments for cells expressing human recombinant DP1, EP1, EP2, EP3, EP4, FP, and IP receptors. The dose range for the standard agonist for human recombinant TP receptors was from 10^−12 M to 10^−6 M. HBSS-HEPES buffer was used as the negative control for the standard agonists. Cells were excited with LED (light emitting diode) excitation at 470-495 nm and emission was measured through an emission filter at 515-575 nm. Assay plates were read for 3.5 minutes using the FLIPR^TETRA. The peak increase in fluorescence intensity was recorded for each well. On each plate, negative controls, dose response of positive controls, and co-treatments of antagonist-agonist for each dose were in triplicates.
Standard agonists were as follows: DP=BW 245C, EP1-EP4=PGE2, FP=17-phenyl-PGF2α, IP=Cicaprost, and TP=U-46619. […]

[4] = molecular target: T4, human prostanoid TP receptor (Homo sapiens, UniProt P21731); assay: FLIPR Ca2+ signaling antagonist assay, TP receptor stable cell line; details: HEK-293 EBNA stable cell line; standard agonist U-46619; NA = inactive (no antagonism or Kb 10,000 nM); PAg, Ag not defined
T4 construct: expressed in transfected cells
T4 sequence (P21731 1-343): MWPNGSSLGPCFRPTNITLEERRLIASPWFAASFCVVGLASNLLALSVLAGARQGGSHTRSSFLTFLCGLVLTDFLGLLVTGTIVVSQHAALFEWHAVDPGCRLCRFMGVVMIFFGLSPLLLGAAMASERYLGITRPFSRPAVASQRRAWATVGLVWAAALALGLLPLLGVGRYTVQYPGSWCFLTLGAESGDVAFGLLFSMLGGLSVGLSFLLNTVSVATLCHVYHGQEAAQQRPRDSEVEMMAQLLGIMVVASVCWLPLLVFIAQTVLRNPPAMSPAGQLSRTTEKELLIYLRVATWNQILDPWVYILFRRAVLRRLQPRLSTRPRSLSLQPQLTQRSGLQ
Outline: as §1

[5] = molecular target: T5, human prostanoid DP1 receptor (Homo sapiens, UniProt Q13258); assay: FLIPR Ca2+ signaling antagonist assay, DP1 receptor stable cell line; details: HEK-293 EBNA stable cell line; standard agonist BW 245C; NA = inactive (no antagonism or Kb 10,000 nM); PAg, Ag not defined
T5 construct: expressed in transfected cells
T5 sequence (Q13258 1-359): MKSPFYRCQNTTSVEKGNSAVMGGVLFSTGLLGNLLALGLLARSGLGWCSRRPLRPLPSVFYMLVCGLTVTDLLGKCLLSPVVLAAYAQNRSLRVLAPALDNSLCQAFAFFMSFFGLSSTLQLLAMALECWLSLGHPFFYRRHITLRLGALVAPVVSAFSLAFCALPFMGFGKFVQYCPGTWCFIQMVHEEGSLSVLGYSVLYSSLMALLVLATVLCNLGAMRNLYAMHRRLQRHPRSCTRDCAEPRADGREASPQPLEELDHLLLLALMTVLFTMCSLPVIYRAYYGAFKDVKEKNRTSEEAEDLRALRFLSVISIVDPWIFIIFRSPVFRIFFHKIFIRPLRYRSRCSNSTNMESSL
Outline: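 HEK-293 EBNA cells stably expressed the receptor: DP1 with chimeric Gqs, EP3 with Gqi, and EP1 and TP without exogenous G protein. Fluo-4AM-loaded cells were preincubated 4.5 min at 37 °C with antagonist (0.1–30 μM; TP 0.067–1 μM) before agonist serial dilutions. Peak FLIPR fluorescence was normalised to the 10^−6 M agonist control.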

[6] = molecular target: T6, human prostanoid FP receptor (Homo sapiens, UniProt P43088); assay: FLIPR Ca2+ signaling antagonist assay, FP receptor stable cell line; details: HEK-293 EBNA stable cell line; standard agonist 17-phenyl-PGF2α; NA = inactive (no antagonism or Kb 10,000 nM); PAg, Ag not defined
T6 construct: expressed in transfected cells
Outline: as §1

[7] = molecular target: T7, human prostanoid IP receptor (Homo sapiens, UniProt P43119); assay: FLIPR Ca2+ signaling antagonist assay, IP receptor stable cell line; details: HEK-293 EBNA stable cell line; standard agonist Cicaprost; NA = inactive (no antagonism or Kb 10,000 nM); PAg, Ag not defined
T7 construct: expressed in transfected cells
Outline: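 HEK-293 EBNA cells stably expressing receptor (EP3 co-expressed with chimeric Gqi; EP1, IP, TP without exogenous G protein), Fluo-4 loaded, read on FLIPR at 37° C. Antagonist added 4.5 min before standard agonist (EP1/EP3 PGE2, IP cicaprost 10^−11–10^−5 M; TP U-46619 10^−12–10^−6 M); antagonist 0.1–30 μM, TP 0.067–1 μM; peak fluorescence relative to 10^−6 M agonist.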

T1 sequence (P35408 whole entry): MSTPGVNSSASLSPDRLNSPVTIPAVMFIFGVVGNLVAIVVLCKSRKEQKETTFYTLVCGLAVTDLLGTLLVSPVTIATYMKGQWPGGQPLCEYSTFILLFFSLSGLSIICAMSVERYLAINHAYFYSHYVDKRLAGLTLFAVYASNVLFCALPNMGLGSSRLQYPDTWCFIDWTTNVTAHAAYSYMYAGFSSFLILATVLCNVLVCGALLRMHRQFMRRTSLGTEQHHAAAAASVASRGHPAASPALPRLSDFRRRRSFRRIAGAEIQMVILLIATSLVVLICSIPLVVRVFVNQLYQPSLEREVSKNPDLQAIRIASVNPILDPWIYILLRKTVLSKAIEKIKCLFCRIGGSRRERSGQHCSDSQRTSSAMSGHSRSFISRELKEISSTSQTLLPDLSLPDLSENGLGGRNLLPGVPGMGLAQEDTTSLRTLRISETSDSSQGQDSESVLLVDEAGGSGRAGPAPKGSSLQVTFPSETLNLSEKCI
T3 sequence (P43116 whole entry): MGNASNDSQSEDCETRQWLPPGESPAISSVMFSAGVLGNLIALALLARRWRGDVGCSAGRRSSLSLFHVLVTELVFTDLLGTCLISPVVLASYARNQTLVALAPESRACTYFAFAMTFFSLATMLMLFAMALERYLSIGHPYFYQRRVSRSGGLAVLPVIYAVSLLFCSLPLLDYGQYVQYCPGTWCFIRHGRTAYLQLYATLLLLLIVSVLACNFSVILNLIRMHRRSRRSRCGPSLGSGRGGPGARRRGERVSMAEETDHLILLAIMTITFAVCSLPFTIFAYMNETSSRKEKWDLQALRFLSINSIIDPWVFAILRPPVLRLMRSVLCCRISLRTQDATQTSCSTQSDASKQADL
T6 sequence (P43088 whole entry): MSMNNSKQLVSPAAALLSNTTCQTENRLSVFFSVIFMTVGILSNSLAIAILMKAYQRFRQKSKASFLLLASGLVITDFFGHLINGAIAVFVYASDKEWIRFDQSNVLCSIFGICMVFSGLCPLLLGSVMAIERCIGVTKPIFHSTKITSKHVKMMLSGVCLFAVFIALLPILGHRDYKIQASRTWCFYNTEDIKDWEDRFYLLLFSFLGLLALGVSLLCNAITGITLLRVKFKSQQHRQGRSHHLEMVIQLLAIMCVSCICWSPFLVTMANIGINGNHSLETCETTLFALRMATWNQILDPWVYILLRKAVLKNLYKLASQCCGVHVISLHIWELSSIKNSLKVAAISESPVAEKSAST
T7 sequence (P43119 whole entry): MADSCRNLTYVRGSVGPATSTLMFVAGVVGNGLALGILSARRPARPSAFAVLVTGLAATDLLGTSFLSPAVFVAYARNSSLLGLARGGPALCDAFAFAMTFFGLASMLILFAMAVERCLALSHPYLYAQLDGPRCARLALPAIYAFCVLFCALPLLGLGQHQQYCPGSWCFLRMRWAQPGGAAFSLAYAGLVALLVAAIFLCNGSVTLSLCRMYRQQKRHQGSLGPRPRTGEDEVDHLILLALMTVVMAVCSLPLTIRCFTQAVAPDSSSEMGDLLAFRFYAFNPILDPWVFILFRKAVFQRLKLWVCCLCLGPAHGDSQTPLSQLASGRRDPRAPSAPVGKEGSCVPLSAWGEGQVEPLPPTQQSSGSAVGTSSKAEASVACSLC

Row | Compound | Kb [1] [nM] | Kb [3] [µM] | Kb [4] [nM] | Kb [5] [nM] | Kb [6] [nM] | Kb [7] [µM] | DP1 (FLIPR) Kb [5] | EP4 (FLIPR) Kb [1] | EP1 (FLIPR) Kb [2] | EP2 (FLIPR) Kb [3] | TP (FLIPR) Kb [4] | IP (FLIPR) Kb [7] | Kb [2] [nM]
1 | Cc1cc(CCC(=O)O)nn1Cc1cc(Cl)ccc1OCCC(C)C [Example 21, 3-[1-(5-Chloro-2-(3-methylbutoxy)benzyl)-5-methyl-1H-pyrazol-3-yl]-propionic acid] | 1000 | 8.2 | 30 |  | 225 | 5.53 | PAg |  |  |  |  |  | 350
2 | Cc1cc(CCC(=O)O)nn1Cc1cc(Cl)ccc1OC(CC(C)C)CC(C)C [Example 23, 3-[1-(5-Chloro-2-(1-isobutyl-3-methylbutoxy)benzyl)-5-methyl-1H-pyrazol-3-yl]-propionic acid] |  |  |  | 160 |  |  |  | Ag |  | PAg | Ag | Ag | 1500
3 | CCC(CC)COc1ccc(OC(F)(F)F)cc1Cn1nc(CCC(=O)O)cc1C [Example 48, 3-[1-[2-(2-Ethyl-butoxy)-5-trifluoromethoxy-benzyl]-5-methyl-1H-pyrazol-3-yl]-propionic acid] | 400 | 3 | 40 |  | 150 | 2.3 | PAg |  |  |  |  |  | 80

Now from value to compound, other results behind:

Row | Kb [1] [nM] | Kb [3] [µM] | Kb [4] [nM] | Kb [5] [nM] | Kb [6] [nM] | Kb [7] [µM] | DP1 (FLIPR) Kb [5] | EP4 (FLIPR) Kb [1] | EP1 (FLIPR) Kb [2] | EP2 (FLIPR) Kb [3] | TP (FLIPR) Kb [4] | IP (FLIPR) Kb [7] | Compound | Kb [2] [nM]
4 | 500 | 1.7 | 30 | 110 | 30 | 3.6 |  |  |  |  |  |  | Cc1cc(CCC(=O)O)nn1Cc1cc(Br)ccc1OCC1CCC1 [Example 12, 3-[1-(5-Bromo-2-(2-cyclobutylmethoxy)-benzyl)-5-methyl-1H-pyrazol-3-yl]-propionic acid] | 30
5 | 1000 | 8.2 | 30 |  | 200 | 5.5 | PAg |  |  |  |  |  | Cc1cc(CCCCC(=O)O)nn1Cc1cc(Cl)ccc1OCC1CCCC1 [Example 41, 5-[1-(5-Chloro-2-cyclopentylmethoxybenzyl)-5-methyl-1H-pyrazol-3-yl]-pentanoic acid] | 350
6 |  |  |  |  | 170 |  | PAg | Ag | Ag | PAg | Ag | Ag | Cc1cc(CCC(=O)O)nn1Cc1cc(Cl)ccc1OCCCCC(C)C [Example 36, 3-[1-(5-Chloro-2-(5-methylhexyloxy)benzyl)-5-methyl-1H-pyrazol-3-yl]-propionic acid] | 
7 |  |  |  |  | 300 |  | PAg | PAg | PAg | PAg | PAg | PAg | Cc1cc(CCC(=O)O)nn1Cc1cc(Cl)ccc1OCCC1CCCC1 [Example 39, 3-[1-(5-Chloro-2-(2-cyclopentylethoxy)benzyl)-5-methyl-1H-pyrazol-3-yl]-propionic acid] | 
8 | 7400 | 2.5 | 9 | 300 | 200 | 1.2 |  |  |  |  |  |  | COc1ccc(COc2ccc(Cl)cc2Cn2nc(CCC(=O)O)cc2C)cc1 [Example 31, 3-[1-(5-Chloro-2-(4-methoxybenzyloxy)benzyl)-5-methyl-1H-pyrazol-3-yl]-propionic acid] | 300
